Measurements reported in patent US20230074545A1, “TREATMENT OF CANCER WITH CDK12/13 INHIBITORS” (Kinnate Biopharma Inc., priority 2019, published 2023).
Like-named read-outs stand apart in the source and are kept apart here.

How the values were obtained:
CDK12 = target: T1, CDK12 (Homo sapiens, UniProt Q9NYV4); test: Radiometric kinase assay (33PanQinase); assay type: biochemical; settings: read-out: Inhibition of CDK Activity (molar inhibition in a radiometric assay)
T1 construct: either as full-length or enzymatically active fragments; purchased ProQinase GmbH (Reaction Biology)
Protocol: (§1) The compounds 1-5 (see Table 1) were assayed for kinase activity at ProQinase (ProQinase GmbH, Reaction Biology; Freiburg, Germany) using their commercially available radiometric kinase assay services. Briefly, the compounds were provided as solids and were dissolved to 1×10^−03 M/100% DMSO stock solutions on the day of assay. All protein kinases were provided by ProQinase and were expressed in Sf9 insect cells or in E. coli as recombinant GST-fusion proteins or His-tagged proteins, either as full-length or enzymatically active fragments. All kinases were produced from human cDNAs and purified by either GSH-affinity chromatography or immobilized metal. The purity of the protein kinases was examined by SDS-PAGE/Coomassie staining, the identity was checked by mass spectroscopy. A radiometric protein kinase assay (^33PanQinase® Activity Assay) was used for measuring the kinase activity of the protein kinase. All kinase assays were performed in 96-well FlashPlates™ from PerkinElmer (Boston, Mass., USA) in a 50 microliter reaction volume. The reaction cocktail was pipetted in four steps in the following order: 1) 25 microliter of assay buffer (standard buffer/[gamma-^33P]-ATP); 2) 10 microliter of ATP solution (in H2O); 3) 5 microliter of test compound (in 10% DMSO); 4) 10 microliter of enzyme/substrate mixture.
(§2) As a parameter for assay quality, the Z′-factor (Zhang et al., J. Biomol. Screen. 2: 67-73, 1999) for the low and high controls of each assay plate (n=8) was used. ProQinase's criterion for repetition of an assay plate is a Z′-factor below 0.4.

CDK13 = target: T2, CDK13 (Homo sapiens, UniProt Q14004); test: Radiometric kinase assay (33PanQinase); assay type: biochemical; settings: read-out: Inhibition of CDK Activity (molar inhibition in a radiometric assay)
T2 construct: either as full-length or enzymatically active fragments; purchased ProQinase GmbH (Reaction Biology)
Protocol: as §1, §2

CDK2 = target: T3, CDK2 (Homo sapiens, UniProt P24941); test: Radiometric kinase assay (33PanQinase); assay type: biochemical; settings: read-out: Inhibition of CDK Activity (molar inhibition in a radiometric assay)
T3 construct: either as full-length or enzymatically active fragments; purchased ProQinase GmbH (Reaction Biology); host or cells: Sf9 insect cells or E. coli
Protocol: as §1, §2

CDK7 = target: T4, CDK7 (Homo sapiens, UniProt P50613); test: Radiometric kinase assay (33PanQinase); assay type: biochemical; settings: read-out: Inhibition of CDK Activity (molar inhibition in a radiometric assay)
T4 construct: either as full-length or enzymatically active fragments; purchased ProQinase GmbH (Reaction Biology); host or cells: Sf9 insect cells or E. coli
Protocol: as §1, §2

CDK9 = target: T5, CDK9 (Homo sapiens, UniProt P50750); test: Radiometric kinase assay (33PanQinase); assay type: biochemical; settings: read-out: Inhibition of CDK Activity (molar inhibition in a radiometric assay)
T5 construct: either as full-length or enzymatically active fragments; purchased ProQinase GmbH (Reaction Biology); host or cells: Sf9 insect cells or E. coli
Protocol: as §1, §2

OVCAR-3 cells = test: OVCAR-3 cell proliferation (CellTiter-Glo); assay type: cell-based; settings: Homo sapiens, read-out: Inhibition of proliferation of OVCAR3 cells (IC50 in M)
From the text: OVCAR-3 was used as the cell line to model for ovarian cancer in vitro and in vivo. This cell line was obtained from ATCC (Catalog #HTB-161) and is an adenocarcinoma line from the malignant ascites of a patient with progressive adenocarcinoma of the ovary and embodies a preclinical model of high-grade, serous ovarian cancer (HGSOC). OVCAR-3 has been deemed an appropriate model system in which to study drug resistance in ovarian cancer, and the presence of hormone receptors should be useful for the evaluation of hormonal therapy. OVCAR-3 is resistant to clinically relevant concentrations of adriamycin, melphalan and cisplatin.
(§3) Compounds 1-5 were tested at different concentrations (from 4 μM to 126.4 pM; 0.5 log serial dilutions) for their ability to inhibit the proliferation of OVCAR-3 cells. Cells were grown in ATCC-formulated RPMI-1640 Medium (ATCC 30-2001)+10% FBS. The cells were cultured at 37° C. in a humidified chamber in the presence of 5% CO2. Proliferation assays were conducted over a 72 hour time period.
(§4) Cells were cultured and maintained as described above, with cells always fed on the day prior to assay. Assays were run with a 2 hour compound exposure followed by a washout and then a 72 hour proliferation time or exposed to the test compounds for 72 hours with no washout of compound. DMSO was used as a control in all wells not receiving test compound and DMSO wells were used for plate normalization. Proliferation and survival of cells was quantified based on the amount of total ATP following cell lysis as determined by using a standard assay kit used according to manufacturer's instructions. Experiments were performed in the same media used by each cell type for growth and maintenance. Cells (5×10^4) were plated in 96 well plates for compound exposure. CellTiter-Glo® (Promega Corporation, Madison, Wis. USA) was used to assess the anti-proliferative effects of the compounds following manufacturer's directions and utilizing the reagents supplied with the CellTiter-Glo® kit.

HCC70 cells = test: HCC70 cell proliferation (CellTiter-Glo); assay type: cell-based; settings: Homo sapiens, read-out: Inhibition of Proliferation of HCC70 Cells (IC50 in M)
Protocol: HCC70 was the cell line used as a model of triple-negative breast cancer (TNBC). This cell line was obtained from ATCC and was initiated from a primary ductal carcinoma in 1992 (Catalog #CRL-2315; mammary gland primary ductal carcinoma). The HCC-70 tumor cell line was maintained in vitro as a monolayer culture in RPMI-1640 medium supplemented with 10% heat inactivated fetal bovine serum at 37° C. in an atmosphere of 5% CO2 in air.
as §3, with “Representative compounds” for “Compounds 1-5”, “HCC70” for “OVCAR-3”
as §4

RNA polymerase II [1] = test: Ex vivo RNA polymerase II phosphorylation (pS2/S2) in human PBMCs; assay type: cell-based; settings: PBMC, hPBMCs, 2 hours
Protocol: (§5) The ability of the compounds to inhibit phosphorylation of peripheral blood mononuclear cells (PBMCs) was analyzed ex vivo. Compounds 1 and 4 were dosed at concentrations between 4 μM to 126.4 pM (0.5 log serial dilutions) for 2 hours. The amount of phosphorylated RNA polymerase II and the total amount of RNA polymerase II was analyzed. The values were normalized by taking the ratio of the phosphorylated RNA polymerase II to the total RNA polymerase II (pS2/S2).

RNA polymerase II [2] = test: Ex vivo RNA polymerase II phosphorylation (pS2/S2) in cynomolgus PBMCs; assay type: cell-based; settings: Macaca fascicularis, PBMC; moPBMCs, 2 hours
Protocol: as §5

PAK2 = target: T6, PAK2 (Homo sapiens, UniProt Q13177); test: Radiometric kinase panel; assay type: biochemical
T6 construct: either as full-length or enzymatically active fragments; purchased ProQinase GmbH (Reaction Biology)
Protocol: as §1
(§6) Compound 4 was analyzed for selectivity against a panel of other kinases at ProQinase using their commercially available radiometric kinase assay services and the methods described in Example 1.

non-CDK12/13 kinases = test: Radiometric kinase panel, summary; assay type: biochemical, human; settings: 1 μM
Protocol: as §1, with “The reaction cocktail was pipetted in four steps in the following order: 1) 25 microliter of assay buffer (standard buffer/[gamma-^33P]-ATP); 2) 10 microliter of ATP solution (in H2O); 3) 5 microliter of test compound (in 10% DMSO); 4) 10 microliter of enzyme/substrate mixture.” left out
as §6

[3] = OVCAR-3 (no washout), exposed for 72 hours
[4] = OVCAR-3 (w/washout), 2 hour exposure, washout, 72 hour proliferation
[5] = HCC70 (no washout), exposed for 72 hours
[6] = HCC70 (w/washout), 2 hour exposure, washout, 72 hour proliferation

T2 sequence (Q14004 whole entry, the tested form may be a part): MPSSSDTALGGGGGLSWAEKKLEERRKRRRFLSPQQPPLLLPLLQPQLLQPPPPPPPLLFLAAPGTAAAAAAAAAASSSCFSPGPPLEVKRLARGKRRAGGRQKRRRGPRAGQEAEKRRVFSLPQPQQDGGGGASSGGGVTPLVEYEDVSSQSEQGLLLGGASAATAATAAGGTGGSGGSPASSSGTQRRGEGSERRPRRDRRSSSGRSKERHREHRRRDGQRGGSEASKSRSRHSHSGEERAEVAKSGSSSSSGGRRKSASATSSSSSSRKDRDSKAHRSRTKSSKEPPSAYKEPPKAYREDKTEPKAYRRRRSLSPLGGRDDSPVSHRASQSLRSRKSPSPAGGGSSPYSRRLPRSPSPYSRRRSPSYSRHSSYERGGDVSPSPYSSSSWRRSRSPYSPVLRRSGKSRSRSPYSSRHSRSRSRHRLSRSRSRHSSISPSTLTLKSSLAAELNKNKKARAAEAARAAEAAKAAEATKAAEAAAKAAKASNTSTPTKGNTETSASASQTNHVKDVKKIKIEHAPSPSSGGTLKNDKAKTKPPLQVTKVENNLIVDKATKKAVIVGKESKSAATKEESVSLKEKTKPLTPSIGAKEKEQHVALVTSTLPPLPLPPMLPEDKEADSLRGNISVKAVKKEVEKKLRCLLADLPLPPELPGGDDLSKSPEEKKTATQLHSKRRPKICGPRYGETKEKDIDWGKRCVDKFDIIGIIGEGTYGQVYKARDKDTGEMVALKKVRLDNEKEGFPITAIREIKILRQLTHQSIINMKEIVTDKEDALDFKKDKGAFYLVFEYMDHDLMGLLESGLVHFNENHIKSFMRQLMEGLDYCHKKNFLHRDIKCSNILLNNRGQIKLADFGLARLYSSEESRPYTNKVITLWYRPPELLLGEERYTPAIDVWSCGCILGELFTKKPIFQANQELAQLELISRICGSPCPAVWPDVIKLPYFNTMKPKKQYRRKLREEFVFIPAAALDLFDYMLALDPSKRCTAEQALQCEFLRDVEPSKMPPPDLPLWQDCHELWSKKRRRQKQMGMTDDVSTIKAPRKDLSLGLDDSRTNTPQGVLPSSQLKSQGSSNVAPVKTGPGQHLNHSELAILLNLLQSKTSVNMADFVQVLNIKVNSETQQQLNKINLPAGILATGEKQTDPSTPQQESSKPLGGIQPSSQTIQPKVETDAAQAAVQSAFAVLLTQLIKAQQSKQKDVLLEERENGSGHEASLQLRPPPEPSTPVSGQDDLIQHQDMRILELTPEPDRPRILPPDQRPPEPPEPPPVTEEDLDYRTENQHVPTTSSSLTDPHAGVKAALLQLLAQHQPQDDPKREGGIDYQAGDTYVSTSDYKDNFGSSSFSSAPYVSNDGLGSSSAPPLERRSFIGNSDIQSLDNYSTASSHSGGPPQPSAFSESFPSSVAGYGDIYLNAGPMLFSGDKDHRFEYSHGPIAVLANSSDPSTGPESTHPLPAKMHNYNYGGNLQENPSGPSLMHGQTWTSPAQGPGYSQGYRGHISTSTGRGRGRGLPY
T2 sequence (O75909 whole entry partner, the tested form may be a part): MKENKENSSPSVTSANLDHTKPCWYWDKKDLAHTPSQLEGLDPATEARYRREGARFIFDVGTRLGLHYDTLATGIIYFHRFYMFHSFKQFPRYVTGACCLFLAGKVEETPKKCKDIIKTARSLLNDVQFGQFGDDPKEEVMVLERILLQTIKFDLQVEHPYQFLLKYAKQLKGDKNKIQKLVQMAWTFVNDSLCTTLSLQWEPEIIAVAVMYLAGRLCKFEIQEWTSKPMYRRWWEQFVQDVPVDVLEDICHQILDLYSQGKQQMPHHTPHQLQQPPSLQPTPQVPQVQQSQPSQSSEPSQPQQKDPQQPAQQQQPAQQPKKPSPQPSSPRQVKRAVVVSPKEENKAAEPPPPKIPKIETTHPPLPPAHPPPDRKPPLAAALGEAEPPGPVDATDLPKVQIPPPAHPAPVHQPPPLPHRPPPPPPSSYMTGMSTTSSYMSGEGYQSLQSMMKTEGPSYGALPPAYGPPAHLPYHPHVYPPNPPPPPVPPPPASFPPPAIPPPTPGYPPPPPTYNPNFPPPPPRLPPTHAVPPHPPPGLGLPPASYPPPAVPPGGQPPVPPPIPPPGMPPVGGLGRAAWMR
T5 sequence (P50750 whole entry, the tested form may be a part): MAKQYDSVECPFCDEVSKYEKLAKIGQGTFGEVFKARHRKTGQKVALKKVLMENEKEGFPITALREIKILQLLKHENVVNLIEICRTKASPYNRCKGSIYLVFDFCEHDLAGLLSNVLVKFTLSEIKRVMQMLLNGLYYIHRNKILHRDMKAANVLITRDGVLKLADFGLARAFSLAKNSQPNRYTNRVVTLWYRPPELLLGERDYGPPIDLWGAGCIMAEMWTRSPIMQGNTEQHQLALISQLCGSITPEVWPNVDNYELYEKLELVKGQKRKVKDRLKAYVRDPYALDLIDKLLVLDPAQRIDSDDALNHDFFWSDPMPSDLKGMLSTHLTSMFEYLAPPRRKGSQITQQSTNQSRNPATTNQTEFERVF
T5 sequence (O60563 whole entry partner, the tested form may be a part): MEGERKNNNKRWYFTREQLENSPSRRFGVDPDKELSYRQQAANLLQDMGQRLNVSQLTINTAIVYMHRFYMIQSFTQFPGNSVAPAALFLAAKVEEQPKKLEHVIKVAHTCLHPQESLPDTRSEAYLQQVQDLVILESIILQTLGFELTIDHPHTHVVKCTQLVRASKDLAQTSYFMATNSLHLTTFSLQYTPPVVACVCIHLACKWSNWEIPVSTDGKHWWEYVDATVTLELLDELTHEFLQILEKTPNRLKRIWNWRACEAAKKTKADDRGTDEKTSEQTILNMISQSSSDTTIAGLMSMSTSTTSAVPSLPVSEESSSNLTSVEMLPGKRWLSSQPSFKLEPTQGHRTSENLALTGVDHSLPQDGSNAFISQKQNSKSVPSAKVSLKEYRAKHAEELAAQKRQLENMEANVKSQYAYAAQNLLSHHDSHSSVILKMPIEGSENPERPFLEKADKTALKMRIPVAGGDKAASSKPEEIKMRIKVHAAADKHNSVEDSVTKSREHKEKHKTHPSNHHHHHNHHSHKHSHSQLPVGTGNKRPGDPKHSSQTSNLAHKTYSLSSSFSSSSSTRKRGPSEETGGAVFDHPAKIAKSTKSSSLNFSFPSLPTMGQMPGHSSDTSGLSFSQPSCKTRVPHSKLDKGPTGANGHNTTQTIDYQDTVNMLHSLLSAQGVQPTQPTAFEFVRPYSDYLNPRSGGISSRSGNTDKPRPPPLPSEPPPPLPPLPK
T4 sequence (P50613 whole entry, the tested form may be a part): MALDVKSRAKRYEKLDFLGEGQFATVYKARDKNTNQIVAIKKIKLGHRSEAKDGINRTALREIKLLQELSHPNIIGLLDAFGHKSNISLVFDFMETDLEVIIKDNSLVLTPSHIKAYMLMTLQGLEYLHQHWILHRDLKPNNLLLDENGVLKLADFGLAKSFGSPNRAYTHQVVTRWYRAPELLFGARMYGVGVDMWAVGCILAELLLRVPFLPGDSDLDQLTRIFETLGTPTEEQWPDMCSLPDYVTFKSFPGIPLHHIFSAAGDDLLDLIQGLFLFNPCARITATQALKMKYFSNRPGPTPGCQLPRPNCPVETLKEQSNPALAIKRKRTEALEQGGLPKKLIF
T4 sequence (P51946 whole entry partner, the tested form may be a part): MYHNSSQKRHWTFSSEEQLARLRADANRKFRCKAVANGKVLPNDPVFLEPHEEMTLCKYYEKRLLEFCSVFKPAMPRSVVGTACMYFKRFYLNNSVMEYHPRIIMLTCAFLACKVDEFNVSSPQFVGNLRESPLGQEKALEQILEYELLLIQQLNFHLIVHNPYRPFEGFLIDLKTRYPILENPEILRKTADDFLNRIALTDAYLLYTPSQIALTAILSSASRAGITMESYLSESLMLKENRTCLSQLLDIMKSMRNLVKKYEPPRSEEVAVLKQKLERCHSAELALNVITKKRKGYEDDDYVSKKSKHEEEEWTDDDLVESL
T4 sequence (P51948 whole entry partner, the tested form may be a part): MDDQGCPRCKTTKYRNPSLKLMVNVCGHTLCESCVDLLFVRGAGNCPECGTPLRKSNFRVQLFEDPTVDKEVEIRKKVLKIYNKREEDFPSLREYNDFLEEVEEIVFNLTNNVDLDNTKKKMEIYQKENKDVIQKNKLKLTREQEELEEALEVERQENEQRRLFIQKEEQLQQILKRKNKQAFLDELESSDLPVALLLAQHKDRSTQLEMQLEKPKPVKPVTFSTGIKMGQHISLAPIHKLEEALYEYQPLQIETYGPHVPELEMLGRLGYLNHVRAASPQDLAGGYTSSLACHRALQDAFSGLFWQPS
T6 sequence (Q13177 whole entry, the tested form may be a part): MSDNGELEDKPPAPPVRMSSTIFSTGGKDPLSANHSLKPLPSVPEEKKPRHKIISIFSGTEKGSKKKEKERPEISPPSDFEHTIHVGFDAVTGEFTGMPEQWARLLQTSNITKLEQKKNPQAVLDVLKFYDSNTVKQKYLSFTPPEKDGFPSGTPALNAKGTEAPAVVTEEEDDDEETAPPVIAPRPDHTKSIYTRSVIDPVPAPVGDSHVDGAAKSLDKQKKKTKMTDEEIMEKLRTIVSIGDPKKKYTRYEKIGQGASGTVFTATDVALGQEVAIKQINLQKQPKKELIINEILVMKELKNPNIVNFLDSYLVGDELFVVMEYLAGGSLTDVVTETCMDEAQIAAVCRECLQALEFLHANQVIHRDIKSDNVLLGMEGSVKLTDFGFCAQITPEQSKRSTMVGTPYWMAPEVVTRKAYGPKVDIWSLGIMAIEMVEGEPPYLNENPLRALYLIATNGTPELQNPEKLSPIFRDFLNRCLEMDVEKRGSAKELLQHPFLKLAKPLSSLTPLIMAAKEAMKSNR

Structure (SMILES) | IC50 (CDK12) [nM] | IC50 (CDK13) [nM] | IC50 (CDK2) [nM] | IC50 (CDK7) [nM] | IC50 (CDK9) [nM] | IC50 (OVCAR-3 cells; [3]) [nM] | IC50 (OVCAR-3 cells; [4]) [nM] | IC50 (HCC70 cells; [5]) [nM] | IC50 (HCC70 cells; [6]) [nM] | IC50 (RNA polymerase II [1]) [nM] | IC50 (RNA polymerase II [2]) [nM] | inhibition at 1 µM (PAK2) [%] | average percent of inhibition against non-CDK12/13 kinases (non-CDK12/13 kinases)
C=CC(=O)Nc1ccc(C(=O)N2CC[C@@H](Nc3ncc(Cl)c(OC)n3)C2)cc1 [Compound 1, (R)-N-(4-(3-((5-chloro-4-methoxypyrimidin-2-yl)amino)pyrrolidine-1-carbonyl)phenyl)acrylamide] | 21.3 | 25.8 | 1150 | 1100 | 288 | 4.45 | 82.4 | 5.1 | 14.1 | 19.3 | 21.6 |  | 
C=CC(=O)Nc1ccc(C(=O)N2CC[C@@H](Nc3ncc(C#N)cn3)C2)cc1 [Compound 4, (R)-N-(4-(3-((5-cyanopyrimidin-2-yl)amino)pyrrolidine-1-carbonyl)phenyl)acrylamide] | 131 | 293 | 7550 | 6960 | 3970 | 31 | 179 | 32.3 | 134 | 167 | 181 | 16 | low average percent of inhibition
